Values of other authors as cited in patent US20080181972A1, “Compositions and Methods for Maintaining, Strengthening, Improving, or Promoting Eye Health” (priority 2007, published 2008).

How the values were obtained:
[1] = tested on: intracellular GSH in lung, liver and kidney cells; conditions: in vivo, liver and kidney cells of mice injected daily with 4, 8, or 16 mg/kg for 11 days
intracellular GSH = conditions: in vitro (cell culture)
AGE from Amadori adducts = conditions: in vitro and in vivo studies
[2] = tested on: human endothelial cell cultures
[3] = in vivo
[4] = phytoestrogenic isoflavones
[5] = tested on: bovine aortic endothelial cell- and human endothelial cell-mediated LDL oxidation; conditions: bovine aortic and human endothelial cells
LDL = conditions: conjugated diene, lipid peroxides and TBARS after cupric sulfate
H2O2 formation = conditions: both in vitro and in vivo
[6] = long-term feeding to rats, 1% in drinking water
[7] = short- and long-term studies

CC(=O)Oc1c(C)c(C)c2c(c1C)CC[C@@](C)(CCC[C@H](C)CCC[C@H](C)CCCC(C)C)O2 (racemic) [DL-α-tocopheryl acetate]
level at which no adverse effects have been observed (in vivo): ≤ 800 mg

O=C(O)CCCCC1CCSS1 (stereo not drawn) [ALA, Alpha-lipoic acid]
increase of intracellular GSH levels [1]: 30-70%
increase of intracellular GSH levels (intracellular GSH): 30-70%

CC1=C(/C=C/C(C)=C/C=C/C(C)=C/C=C/C=C(C)/C=C/C=C(C)/C=C/C2=C(C)C(=O)[C@@H](O)CC2(C)C)C(C)(C)C[C@H](O)C1=O [Astaxanthin]
ill effects (daily dose of 19.25 mg over 29 days, healthy humans): no ill effects

Cc1ncc(CO)c(CN)c1O [PM, pyridoxamine]
inhibition of the formation of AGE from Amadori adducts (AGE from Amadori adducts): potent inhibitor

C/C(=C(\CCOP(=O)(O)O)SC(=O)c1ccccc1)N(C=O)Cc1cnc(C)nc1N [benfotiamine]
AGE generation [2]: effective in reducing AGE generation
AGE accumulation in the retina (retina of diabetic rats): preventing AGE accumulation

CC1=C(/C=C/C(C)=C/C=C/C(C)=C/C=C/C=C(C)/C=C/C=C(C)/C=C/C2=C(C)CCCC2(C)C)C(C)(C)CCC1 [beta-carotene, Beta-carotene]
dosage level with no observed adverse effects (healthy, non-smokers): ≤ 25 mg per day
adverse effects observed (individuals who receive 20 mg/day): increased risk of fatal coronary heart attacks in men with previous myocardial infarction and an increased risk of lung cancer among male smokers
efficiency of conversion to vitamin A in the body [3]: approximately 50%

O=c1c(-c2ccc(O)cc2)coc2cc(O)cc(O)c12 [genistein]
order of reactivity in scavenging the radical in the aqueous phase [4]: genistein>daidzein=genistin approximately equal to biochanin A=daidzein>formononentin approximately equal to onionin
endothelial cell-mediated LDL oxidation [5]: inhibited
order of ability to reduce LDL oxidizability (LDL): quercetine>morin>pelargonidin>genistein>naringin>apigenin
tumor promoter-induced H2O2 formation (H2O2 formation): strongly inhibited

NC(=O)c1cccnc1 [niacinamide]
carcinogenic effects [6]: No carcinogenic effects
toxicity [7]: low toxicity

Cc1ncc(C[n+]2csc(CCO)c2C)c(N)n1 [thiamine]
AGE generation [2]: effective in reducing AGE generation
AGE accumulation in the retina (retina of diabetic rats): preventing AGE accumulation

O=C1O[C@H]([C@@H](O)CO)C(O)=C1O [vitamin C, Ascorbic acid]
daily intake without any known adverse effects (consumed daily): ≥ 1,000 mg
